Reference: US8192962B2, “Processes for detecting toxic substances” (Daikin Industries, Ltd., priority 2001, dated 2012)

Tested on: Unknown protein yeast genes
Test: DNA chip mRNA expression in yeast, unknown protein yeast genes (Table 1)
Format: cell-based, Saccharomyces cerevisiae S288C
In short: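 In this screen, yeast in logarithmic growth are challenged for two hours with a toxic substance at a non-lethal inhibitory concentration. Their mRNA, converted to Cy3- or Cy5-labeled cDNA, hybridizes at 65° C. to a chip spanning every yeast gene, and expression is expressed as a ratio to untreated cells.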

Measured: The level of expressed mRNA in the presence of chemical substance/The level of expressed mRNA in the absence of chemical substance

COc1cc(CNC(=O)CCCCC=CC(C)C)ccc1O [(12), 8-methyl-N-vanillyl-6-nonenamide]
0.6: yeast gene YKL086W, incubated two hours with chemical substance | yeast gene YMR009W, incubated two hours with chemical substance | yeast gene YOR129C
1.4: yeast gene YOL162W, incubated two hours with chemical substance
0.9: yeast gene YKR091W, incubated two hours with chemical substance | yeast gene YNL074C, incubated two hours with chemical substance | yeast gene YNL156C, incubated two hours with chemical substance | yeast gene YOL117W, incubated two hours with chemical substance | yeast gene YOL131W, incubated two hours with chemical substance | yeast gene YPL196W, incubated two hours with chemical substance | yeast gene YPR023C, incubated two hours with chemical substance | yeast gene YPR151C, incubated two hours with chemical substance
0.4: yeast gene YLR460C
2.9: yeast gene YOL150C
2.4: yeast gene YMR102C, incubated two hours with chemical substance
1.1: yeast gene YKL153W, incubated two hours with chemical substance | yeast gene YKL195W, incubated two hours with chemical substance | yeast gene YLR054C, incubated two hours with chemical substance | yeast gene YLR387C, incubated two hours with chemical substance | yeast gene YMR067C, incubated two hours with chemical substance | yeast gene YMR295C, incubated two hours with chemical substance | yeast gene YNL092W, incubated two hours with chemical substance | yeast gene YNL234W, incubated two hours with chemical substance | yeast gene YNL305C, incubated two hours with chemical substance
1.3: yeast gene YNR068C, incubated two hours with chemical substance | yeast gene YPL222W, incubated two hours with chemical substance
1.8: yeast gene YLR350W, incubated two hours with chemical substance | yeast gene YMR191W, incubated two hours with chemical substance | yeast gene YPL087W, incubated two hours with chemical substance
1.2: yeast gene YMR097C, incubated two hours with chemical substance | yeast gene YMR180C, incubated two hours with chemical substance | yeast gene YOL083W, incubated two hours with chemical substance
0.7: yeast gene YNL281W, incubated two hours with chemical substance
2.2: yeast gene YMR090W
0.8: yeast gene YLR324W, incubated two hours with chemical substance | yeast gene YML117W, incubated two hours with chemical substance | yeast gene YMR095C, incubated two hours with chemical substance | yeast gene YMR107W, incubated two hours with chemical substance | yeast gene YNL115C, incubated two hours with chemical substance | yeast gene YOL047C, incubated two hours with chemical substance | yeast gene YPL206C, incubated two hours with chemical substance
2.0: yeast gene YLR149C, incubated two hours with chemical substance
1.9: yeast gene YMR316W, incubated two hours with chemical substance
1.7: yeast gene YMR184W, incubated two hours with chemical substance
1.6: yeast gene YLR194C, incubated two hours with chemical substance
1.0: yeast gene YKL151C, incubated two hours with chemical substance | yeast gene YLR152C, incubated two hours with chemical substance | yeast gene YNL044W, incubated two hours with chemical substance | yeast gene YOL032W, incubated two hours with chemical substance | yeast gene YOL036W, incubated two hours with chemical substance | yeast gene YOL071W, incubated two hours with chemical substance | yeast gene YOL082W, incubated two hours with chemical substance | yeast gene YOR019W, incubated two hours with chemical substance | yeast gene YOR197W, incubated two hours with chemical substance
